B1: c-myc tagged rat CSPα_(1–198) (cysteine string protein) (natural protein, UniProt P60905 1-198, looked up)
chain: MADQRQRSLSTSGESLYHVLGLDKNATSDDIKKSYRKLALKYHPDKNPDNPEAADKFKEINNAHAILTDATKRNIYDKYGSLGLYVAEQFGEENVNTYFVLSSWWAKALFVVCGLLTCCYCCCCLCCCFNCCCGKCKPKAPEGEETEFYVSPEDLEAQLQSDEREATDTPIVIQPASATETTQLTADSHPSYHTDGFN
modifications: both unmodified and palmitoylated (extensive fatty acylation) species seen
notes: cysteine string protein alpha (CSPα), rat, residues 1-198; also called c-myc-CSPα; source: CAD mouse neuroblastoma cells, transiently transfected, in lysate

Experiments:
[1] = target: T1, purified recombinant rat CSPα (Rattus norvegicus, UniProt P60905); assay: SDS-resistant dimerization of purified protein, SDS-PAGE; assay type: binding; details: 24 h incubation; concentration series
T1 construct: gene Dnajc5; purified recombinant soluble CSPα
T1 sequence (P60905 1-198): B1 chain

[2] = target: T2, c-myc-CSPα (Rattus norvegicus, UniProt P60905); assay: CSPα dimer in transfected CAD cells, anti-myc Western blot; assay type: cell-based; details: 24 h treatment of intact cells, cysteine string region
T2 construct: gene Dnajc5; full-length CSPα1-198, c-myc tag kept; transient expression in CAD mouse neuroblastoma cells; palmitoylated monomer ~34 kDa, dimer ~72 kDa
T2 sequence (P60905 1-198): B1 chain

[3] = target: the molecule itself; assay: SDS-resistant dimer on SDS-PAGE with Western blot; lysates of transiently transfected CAD cells, control or treated 24 h with quercetin (up to 200 µM), EGCG or other agents; 30-40 µg protein in SDS sample buffer at 37°C or 80°C; dimer at ∼72 kDa

Row | Molecule | CSPα dimer formation [1] | fold CSPα dimer vs control at 100 μM [2] | fold dimer with 100 µM quercetin at 24 hrs over control [3]
1 | O=c1c(O)c(-c2ccc(O)c(O)c2)oc2cc(O)cc(O)c12 [quercetin, 3,3′,4′,5,7-pentapentahydroxyflavone] | quercetin triggered dimerization of recombinant CSPα in a concentration dependent manner | 4 fold | –
2 | B1 | – | – | 4 fold

— paper PMC2883571, “Quercetin Targets Cysteine String Protein (CSPα) and Impairs Synaptic Transmission” (PLoS ONE, 2010)
